A short description of data set [1]: Pharmacokinetics of parent HHQ16 after single intragastric administration of compound 2 prodrugs in rats. Conditions: HHQ16 (parent) measured in rats after single intragastric 10 mg/kg of prodrug (dose converted to HHQ16). The class given is in vivo, rat. Here is the method:
1. The materials and methods for oral absorption test are the same as described in example 44.
The pharmacokinetic parameters of HHQ16 measured after a single intragastric administration of 10 mg/kg of compound 2 prodrug in rats are summarized in Table 2 below.
The half-life was prolonged to varying degrees.

The test system of data set [2] is chronic heart failure mice. The data set can be described thus: Pharmacodynamic comparison of LCZ696 and compound 2 in chronic heart failure mice (echocardiography). The class given is in vivo. The source says: With EF<50%, chronic heart failure mice were selected.
The mice were detected by cardiac ultrasound after 28 days of administration.

Data set [3] in a line: Solubility test in water and FaSSIF. The settings on record: 37° C., up to 24 hours. The class given is physicochemical.
[4] abbreviates: 100 mg/kg, after 28 days of administration.
[5] abbreviates: Positive control 1 (LCZ696, probably 60 mg/kg), Day 0.
The mark [6] stands for this setting: Positive control 1 (LCZ696, probably 60 mg/kg), Day 28.
Setting [7] is: Positive control 2 (LCZ696, probably 100 mg/kg), Day 0.
The mark [8] stands for this setting: Positive control 2 (LCZ696, probably 100 mg/kg), Day 28.
The mark [9] stands for this setting: chronic heart failure mice (FIG. 9).

Where two headings read alike, the source gives them in different places.

These results are taken from US20220177511A1, “SERIES OF HALOGENATED TETRACYCLIC TRITERPENE DERIVATIVES AND THEIR PREPARATION AND APPLICATION” (SHANGHAI KING-X BIOTECH CO., LTD, priority 2019, published 2022).

What is called Cmax is the maximum level reached in the sampled fluid or tissue. For the molecule “3-(((2aR,3R,4S,5aS,5bS,7S,7aR,11aR,12aS)-9,9-difluoro-4-hydroxy-3-((2S,5S)-5-(2-hydroxypropan-2-yl)-2-methyltetrahydrofuran-2-yl)-2a,5a,8,8-tetramethyltetradecahydro-1H,12H-cyclopenta[a]cyclopropa[e]phenanthren-7-yl)oxy)-3-oxopropan-1-aminium Chloride [Compound 2-1]”, in data set [1], the AUC0-t is 2955 ng·h/mL, the Cmax is on record as 455 ng/mL and the t1/2 is given as 3.52 h.
Taken in the same sequence, the figures for “2-(((2aR,3R,4S,5aS,5bS,7S,7aR,11aR,12aS)-9,9-difluoro-4-hydroxy-3-((2S,5S)-5-(2-hydroxypropan-2-yl)-2-methyltetrahydrofuran-2-yl)-2a,5a,8,8-tetramethyltetradecahydro-1H,12H-cyclopenta[a]cyclopropa[e]phenanthren-7-yl)oxy)-N-methyl-2-oxoethan-1-aminium Chloride [Compound 2-6]” were 3525 ng·h/mL, 433 ng/mL and 4.2 h.
For sacubitril valsartan sodium [LCZ696], in data set [2] (60 mg/kg, after 28 days of administration), the “left ventricular ejection fraction EF % increased by” value came out at 33.14%. In data set [2] (setting [4]), the “FS %” value is listed as “significantly increased” and the “left ventricular ejection fraction EF % increased by” value was found to be 45.36%. In data set [2] (setting [5]), this molecule showed a CO of 30.83 ± 2.77 mL/min, an EF of 23.49 ± 3.96%, an FS of 9.31 ± 1.8% and an HR of 575.58 ± 11.44 times/min. Further, in data set [2] (setting [6]), the CO was found to be 30.17 ± 1.85 mL/min, the EF stood at 31.27 ± 5.36%, the FS came to 12.93 ± 2.66% and the HR was 531.4 ± 19.6 times/min. In data set [2] (setting [7]), this molecule returned a CO of 35.4 ± 3.19 mL/min, an EF of 22.89 ± 2.06%, an FS of 9.24 ± 0.86 % and an HR of 553.5 ± 10.76 times/min. Also, in data set [2] (setting [8]), the CO stood at 39.02 ± 4.26 mL/min, the EF was found to be 34.72 ± 5.06%, the FS was 14.76 ± 2.86% and the HR was 550.17 ± 12.72 times/min. In data set [2] (setting [9]), the “Cardiac output per minute (CO), day 28 vs day 0 (words)” value is listed as “not statistically significant” and the “Heart rate (HR), day 28 vs day 0” value was “no significant change”. In addition, the “EF, day 28 vs day 0 (words)” value in data set [2] (chronic heart failure mice, p<0.0005 (FIG. 8)) is recorded as “significantly increased”.
What is called Solubility is the concentration that dissolves in the medium under given conditions. Turning to `Br.CC(C)(O)[C@@H]1CC[C@@](C)([C@H]2[C@@H](O)C[C@@]3(C)[C@@H]4C[C@H](OC(=O)[C@@H](N)CC(N)=O)[C@H]5C(C)(C)C(F)(F)CC[C@@]56C[C@@]46CC[C@]23C)O1` [Compound 2-21, (S)-4-amino-1-(((2aR,3R,4S,5aS,5bS,7S,7aR,11aR,12aS)-9,9-difluoro-4-hydroxy-3-((2S,5S)-5-(2-hydroxypropan-2-yl)-2-methyltetrahydrofuran-2-yl)-2a,5a,8,8-tetramethyltetradecahydro-1H,12H-cyclopenta[a]cyclopropa[e]phenanthren-7-yl)oxy)-1,4-dioxobutan-2-aminium Bromide], the Solubility in data set [3] (FaSSIF (pH 6.5)) was 3500 µg/mL; in data set [3] (Water), 900 µg/mL.
Turning to `CC(C)(O)C1CCC(C)(C2C(O)CC3(C)C4CC(OC(=O)CNCCNCCN)C5C(C)(C)C(F)(F)CCC56CC46CCC23C)O1.O=[N+]([O-])O` [Compound 2-9, 2-((2-((2-(((2aR,3R,4S,5aS,5bS,7S,7aR,11aR,12aS)-9,9-difluoro-4-hydroxy-3-((2S,5S)-5-(2-hydroxypropan-2-yl)-2-methyltetrahydrofuran-2-yl)-2a,5a,8,8-tetramethyltetradecahydro-1H,12H-cyclopenta[a]cyclopropa[e]phenanthren-7-yl)oxy)-2-oxoethyl)amino)ethyl)amino)ethan-1-aminium Nitrate], the Solubility is 4520 µg/mL in data set [3] (FaSSIF (pH 6.5)) and 2110 µg/mL in data set [3] (Water).
Regarding `CC(C)(O)[C@@H]1CC[C@@](C)([C@H]2[C@@H](O)C[C@@]3(C)[C@@H]4C[C@H](OC(=O)[C@@H](N)CCCCN)[C@H]5C(C)(C)C(F)(F)CC[C@@]56C[C@@]46CC[C@]23C)O1.Cl.Cl` [Compound 2-26, (S)-6-(((2aR,3R,4S,5aS,5bS,7S,7aR,11aR,12aS)-9,9-difluoro-4-hydroxy-3-((2S,5S)-5-(2-hydroxypropan-2-yl)-2-methyltetrahydrofuran-2-yl)-2a,5a,8,8-tetramethyltetradecahydro-1H,12H-cyclopenta[a]cyclopropa[e]phenanthren-7-yl)oxy)-6-oxohexane-1,5-diaminium Chloride], the figures for the Solubility in data set [3] (FaSSIF (pH 6.5)) and in data set [3] (Water) were 6600 µg/mL and 2100 µg/mL, respectively.
`CC(C)(O)[C@@H]1CC[C@@](C)([C@H]2[C@@H](O)C[C@@]3(C)[C@@H]4C[C@H](OC(=O)COCCOCCO)[C@H]5C(C)(C)C(F)(F)CC[C@@]56C[C@@]46CC[C@]23C)O1` [Compound 2-12, (2aR,3R,4S,5aS,5bS,7S,7aR,11aR,12aS)-9,9-difluoro-4-hydroxy-3-((2S,5S)-5-(2-hydroxypropan-2-yl)-2-methyltetrahydrofuran-2-yl)-2a,5a,8,8-tetramethyltetradecahydro-1H,12H-cyclopenta[a]cyclopropa[e]phenanthren-7-yl-2-(2-(2-hydroxyethoxy)ethoxy) Acetate]: the Solubility worked out at 1110 µg/mL in data set [3] (thermodynamic from solid, FaSSIF (pH 6.5), read-out: Solubility) and 680 µg/mL in data set [3] (thermodynamic from solid, Water, read-out: Solubility).
As for `CC(C)(O)C1CCC(C)(C2C(O)CC3(C)C4CC(OP(=O)([O-])O)C5C(C)(C)C(F)(F)CCC56CC46CCC23C)O1.[Na+]` [Compound 3-1, Monosodium Mono((2aR,3R,4S,5aS,5bS,7S,7aR,11aR,12aS)-9,9-difluoro-4-hydroxy-3-((2S,5S)-5-(2-hydroxypropan-2-yl)-2-methyltetrahydrofuran-2-yl)-2a,5a,8,8-tetramethyltetradecahydro-1H,12H-cyclopenta[a]cyclopropa[e]phenanthren-7-yl phosphate)], the results for the Solubility in data set [3] (FaSSIF (pH 6.5)) and in data set [3] (Water) were 15800 µg/mL and 11500 µg/mL, respectively.
Take `C[C@@H](N)C(=O)N[C@H](C)C(=O)O[C@H]1C[C@@H]2[C@]3(CC[C@]4(C)[C@@H]([C@]5(C)CC[C@@H](C(C)(C)O)O5)[C@@H](O)C[C@@]24C)C[C@@]32CCC(F)(F)C(C)(C)[C@H]12.I` [Compound 2-35, (R)-1-(((R)-1-(((2aR,3R,4S,5aS,5bS,7S,7aR,11aR,12aS)-9,9-difluoro-4-hydroxy-3-((2 S,5S)-5-(2-hydroxypropan-2-yl)-2-methyltetrahydrofuran-2-yl)-2a,5a,8,8-tetramethyltetradecahydro-1H,12H-cyclopenta[a]cyclopropa[e]phenanthren-7-yl)oxy)-1-oxopropan-2-yl)amino)-1-oxopropan-2-aminium iodide]: the Solubility in data set [3] (FaSSIF (pH 6.5)) worked out at 3140 µg/mL; in data set [3] (Water), 1350 µg/mL.
On the same counts, the results for `CC(C)C[C@H](N)C(=O)O[C@H]1C[C@@H]2[C@]3(CC[C@]4(C)[C@@H]([C@]5(C)CC[C@@H](C(C)(C)O)O5)[C@@H](O)C[C@@]24C)C[C@@]32CCC(F)(F)C(C)(C)[C@H]12.Cl` [Compound 2-18, (S)-1-(((2aR,3R,4S,5aS,5bS,7S,7aR,11aR,12aS)-9,9-difluoro-4-hydroxy-3-((2S,5S)-5-(2-hydroxypropan-2-yl)-2-methyltetrahydrofuran-2-yl)-2a,5a,8,8-tetramethyltetradecahydro-1H,12H-cyclopenta[a]cyclopropa[e]phenanthren-7-yl)oxy)-4-methyl-1-oxopentan-2-aminium Chloride] are 1850 µg/mL and 600 µg/mL.
